Patent US20250270191A1, “QUINOLONE BCL6 BIFUNCTIONAL DEGRADERS” (Treeline Biosciences, Inc., priority 2022, published 2025)

Target: T1, Human BCL6 protein (N-terminal HiBiT tagged BCL6 in HT1080 cells) (Homo sapiens, UniProt P41182+Q96SW2)
T1 construct: Human BCL6 protein coding open reading frame; expressed in transfected cells; host or cells: HT1080 (ATCC CCL-121), stably transduced with lentivirus pLV-UBC-N-HiBiT-BCL6-PGK-puro
Assay: HiBiT based BCL6 degradation assay
Type: cell-based
Details: HT1080 cells expressing N-terminal HiBiT tagged BCL6; 5 hours incubation; BCL6 degradation normalized with DMSO control
Procedure, shortened: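 HT1080 cells stably expressing N-terminal HiBiT-BCL6 were treated with compound dilution series for 5 h at 37° C. in RPMI 1640 with 10% FBS. HiBiT lytic luminescence read after 15 min; degradation normalized to DMSO, with curves fitted by four-parameter logistic model.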

SMILES | Ymin (5 hr)
CNC(=O)COc1cc2cc(Nc3nc(N4CCN(CC5CCN(c6ccc7c(C8CCC(=O)NC8=O)nn(C)c7c6)CC5)[C@H](C)C4)ncc3Cl)ccc2n(C)c1=O (stereo partly drawn) [Compound 309a, 2-((6-((5-chloro-2-((3R)-4-((1-(3-(2,6-dioxopiperidin-3-yl)-1-methyl-1H-indazol-6-yl)piperidin-4-yl)methyl)-3-methylpiperazin-1-yl)pyrimidin-4-yl)amino)-1-methyl-2-oxo-1,2-dihydroquinolin-3-yl)oxy)-N-methylacetamide] | +++ (25% < Ymin ≤ 50%)
CNC(=O)COc1cc2cc(Nc3nc(N4CCC(C(=O)N5CCN(c6cccc7c(C8CCC(=O)NC8=O)nn(C)c67)CC5)CC4)ncc3Cl)ccc2n(C)c1=O (stereo not shown) [Compound 327, 2-((6-((5-chloro-2-(4-(4-(3-(2,6-dioxopiperidin-3-yl)-1-methyl-1H-indazol-7-yl)piperazine-1-carbonyl)piperidin-1-yl)pyrimidin-4-yl)amino)-1-methyl-2-oxo-1,2-dihydroquinolin-3-yl)oxy)-N-methylacetamide] | ++++ (Ymin ≤ 25%)
CNC(=O)COc1cc2cc(Nc3nc(NC[C@H]4CC[C@H](CNc5cccc6c(C7CCC(=O)NC7=O)nn(C)c56)CC4)ncc3Cl)ccc2n(C)c1=O (stereo partly shown) [Compound 297b, 2-((6-((5-chloro-2-((((1r,4r)-4-(((3-(2,6-dioxopiperidin-3-yl)-1-methyl-1H-indazol-7-yl)amino)methyl)cyclohexyl)methyl)amino)pyrimidin-4-yl)amino)-1-methyl-2-oxo-1,2-dihydroquinolin-3-yl)oxy)-N-methylacetamide] | ++ (50% < Ymin ≤ 70%)
CNC(=O)COc1cc2cc(Nc3nc(NC[C@H]4CC[C@H](Nc5cccc(C6CCC(=O)NC6=O)c5)CC4)ncc3Cl)ccc2n(C)c1=O (stereo partly shown) [Compound 262b, 2-((6-((5-chloro-2-((((1r,4r)-4-((3-(2,6-dioxopiperidin-3-yl)phenyl)amino)cyclohexyl)methyl)amino)pyrimidin-4-yl)amino)-1-methyl-2-oxo-1,2-dihydroquinolin-3-yl)oxy)-N-methylacetamide] | ++ (50% < Ymin ≤ 70%)
CNC(=O)COc1cc2cc(Nc3nc(N4CCC(CC5CCN(c6ccc7c(C8CCC(=O)NC8=O)nn(C)c7c6)C5)CC4)ncc3Cl)ccc2n(C)c1=O (stereo not shown) [Compound 332, 2-((6-((5-chloro-2-(4-((1-(3-(2,6-dioxopiperidin-3-yl)-1-methyl-1H-indazol-6-yl)pyrrolidin-3-yl)methyl)piperidin-1-yl)pyrimidin-4-yl)amino)-1-methyl-2-oxo-1,2-dihydroquinolin-3-yl)oxy)-N-methylacetamide] | +++ (25% < Ymin ≤ 50%)
CNC(=O)COc1cc2cc(Nc3nc(N4CCC(C(=O)N5CCN(c6ccc7c(C8CCC(=O)NC8=O)nn(C)c7c6)CC5)CC4)ncc3Cl)ccc2n(C)c1=O (stereo not shown) [Compound 328, 2-((6-((5-chloro-2-(4-(4-(3-(2,6-dioxopiperidin-3-yl)-1-methyl-1H-indazol-6-yl)piperazine-1-carbonyl)piperidin-1-yl)pyrimidin-4-yl)amino)-1-methyl-2-oxo-1,2-dihydroquinolin-3-yl)oxy)-N-methylacetamide] | ++++ (Ymin ≤ 25%)
CNC(=O)COc1cc2cc(Nc3nc(NC[C@H]4CCCN(c5ccc6c(C7CCC(=O)NC7=O)nn(C)c6c5)C4)ncc3Cl)ccc2n(C)c1=O (stereo partly drawn) [Compound 295a, 2-((6-((5-chloro-2-((((3R)-1-(3-(2,6-dioxopiperidin-3-yl)-1-methyl-1H-indazol-6-yl)piperidin-3-yl)methyl)amino)pyrimidin-4-yl)amino)-1-methyl-2-oxo-1,2-dihydroquinolin-3-yl)oxy)-N-methylacetamide] | ++ (50% < Ymin ≤ 70%)
